Assay results reported in patent US11230538B2, “Herbicides” (SYNGENTA PARTICIPATIONS AG, priority 2016, dated 2022).

Assays:
Type in all cases: in vivo
[1] = tested on: Lolium perenne (LOLPE); assay: B1 Pre-emergence herbicidal activity; set-up: key to Pre-emergence herbicidal activity, LOLPE (damage score 0-5): 5=total damage to plant; 0=no damage to plant; conditions: pre-emergence application, rate 1000 g/ha, evaluated after 13 days
Procedure: (§1) Seeds of a variety of test species were sown in standard soil in pots: Triticum aestivium (TRZAW), Avena fatua (AVEFA), Alopecurus myosuroides (ALOMY), Echinochloa crus-galli (ECHCG), Lolium perenne (LOLPE), Zea Mays (ZEAMX), Abutilon theophrasti (ABUTH), Amaranthus retroflexus (AMARE) and Setaria fabenr (SETFA). After cultivation for one day (pre-emergence) under controlled conditions in a glasshouse (at 24/16° C., day/night; 14 hours light; 65% humidity), the plants were sprayed with an aqueous spray solution derived from the formulation of the technical active ingredient in acetone I water (50:50) solution containing 0.5% Tween 20 (polyoxyethelyene sorbitan monolaurate, CAS RN 9005-64-5). The test plants were then grown in a glasshouse under controlled conditions (at 24/16° C., day/night; 14 hours light; 65% humidity) and watered twice daily. After 13 days, the test was evaluated (5=total damage to plant; 0=no damage to plant).

[2] = tested on: Echinochloa crus-galli (ECHCG); assay: B2 Post-emergence herbicidal activity; conditions: post-emergence application, rate 1000 g/ha, evaluated after 13 days
Procedure: (§2) Seeds of a variety of test species were sown in standard soil in pots: Triticum aestivium (TRZAW), Avena fatua (AVEFA), Alopecurus myosuroides (ALOMY), Echinochloa crus-galli (ECHCG), Lolium perenne (LOLPE), Zea Mays (ZEAMX), Abutilon theophrasti (ABUTH), Amaranthus retroflexus (AMARE) and Setaria fabenri (SETFA). After 8 days cultivation (post-emergence) under controlled conditions in a glasshouse (at 24/16° C., day/night; 14 hours light; 65% humidity), the plants were sprayed with an aqueous spray solution derived from the formulation of the technical active ingredient in acetone I water (50:50) solution containing 0.5% Tween 20 (polyoxyethelyene sorbitan monolaurate, CAS RN 9005-64-5). The test plants were then grown in a glasshouse under controlled conditions (at 24/16° C., day/night; 14 hours light; 65% humidity) and watered twice daily. After 13 days, the test was evaluated (5=total damage to plant; 0=no damage to plant).

[3] = tested on: Echinochloa crus-galli (ECHCG); assay: B1 Pre-emergence herbicidal activity; set-up: key to Pre-emergence herbicidal activity, ECHCG (damage score 0-5): 5=total damage to plant; 0=no damage to plant; conditions: pre-emergence application, rate 1000 g/ha, evaluated after 13 days
Procedure: as §1

[4] = tested on: Alopecurus myosuroides (ALOMY); assay: B2 Post-emergence herbicidal activity; set-up: key: 5=total damage to plant; 0=no damage to plant; conditions: post-emergence application, rate 1000 g/ha, evaluated after 13 days
Procedure: as §2

[5] = tested on: Setaria fabenri (SETFA); assay: B2 Post-emergence herbicidal activity; set-up: key: 5=total damage to plant; 0=no damage to plant; conditions: post-emergence application, rate 1000 g/ha, evaluated after 13 days
Procedure: as §2

[6] = tested on: Triticum aestivium (TRZAW); assay: B2 Post-emergence herbicidal activity; set-up: key: 5=total damage to plant; 0=no damage to plant; conditions: post-emergence application, rate 1000 g/ha, evaluated after 13 days
Procedure: as §2

[7] = tested on: Alopecurus myosuroides (ALOMY); assay: B1 Pre-emergence herbicidal activity; set-up: key: 5=total damage to plant; 0=no damage to plant; conditions: pre-emergence application, rate 1000 g/ha, evaluated after 13 days
Procedure: as §1

[8] = tested on: Triticum aestivium (TRZAW); assay: B1 Pre-emergence herbicidal activity; set-up: key: 5=total damage to plant; 0=no damage to plant; conditions: pre-emergence application, rate 1000 g/ha, evaluated after 13 days
Procedure: as §1

[9] = tested on: Avena fatua (AVEFA); assay: B1 Pre-emergence herbicidal activity; set-up: key: 5=total damage to plant; 0=no damage to plant; conditions: pre-emergence application, rate 1000 g/ha, evaluated after 13 days
Procedure: as §1

[10] = tested on: Setaria fabenr (SETFA); assay: B1 Pre-emergence herbicidal activity; set-up: key to Pre-emergence herbicidal activity, SETFA (damage score 0-5): 5=total damage to plant; 0=no damage to plant; conditions: pre-emergence application, rate 1000 g/ha, evaluated after 13 days
Procedure: as §1

Structure (SMILES) | Pre-emergence herbicidal activity, LOLPE (damage score 0-5) [1] | Post-emergence herbicidal activity, ECHCG (damage score 0-5) [2] | Pre-emergence herbicidal activity, ECHCG (damage score 0-5) [3] | Post-emergence herbicidal activity, ALOMY (damage score 0-5) [4] | Post-emergence herbicidal activity, SETFA (damage score 0-5) [5] | Post-emergence herbicidal activity, TRAZW (damage score 0-5) [6] | Pre-emergence herbicidal activity, ALOMY (damage score 0-5) [7] | Pre-emergence herbicidal activity, TRAZW (damage score 0-5) [8] | Pre-emergence herbicidal activity, AVEFA (damage score 0-5) [9] | Pre-emergence herbicidal activity, SETFA (damage score 0-5) [10]
CCN(CC)CCCN(C(=O)C(C)C)c1ccc(-c2cncc(F)c2)nc1C(F)(F)F [Compound C69] | 0 | 3 | 3 | 0 | 4 | 0 | 0 | 0 | 1 | 5
CCC(=O)N(CC(=O)N(C)C)c1ccc(-c2cncc(F)c2)nc1C(F)(F)F [Compound C71] | 1 | 4 | 4 | 0 | 5 | 0 | 0 | 1 | 1 | 5
CCC(=O)N(COCC(F)(F)F)c1ccc(-c2cncc(F)c2)nc1C(F)(F)F [Compound C72] | 0 | 2 | 1 | 0 | 3 | 0 | 0 | 0 | 0 | 4
CCC(=O)N(CC=C(C)C)c1ccc(-c2cncc(F)c2)nc1C(F)(F)F [Compound C73] | 0 | 4 | 4 | 0 | 5 | 0 | 0 | 0 | 2 | 5
CCN(CC)CCCN(C(=O)c1ccccc1)c1ccc(-c2cncc(F)c2)nc1C(F)(F)F [Compound C74] | 1 | 2 | 1 | 0 | 3 | 0 | 1 | 0 | 0 | 3
CC(C)(C)COCN(C(=O)c1ccccc1)c1ccc(-c2cncc(F)c2)nc1C(F)(F)F [Compound C76] | 0 | 3 | 1 | 0 | 4 | 1 | 0 | 0 | 0 | 5
O=C(c1ccccc1)N(Cc1ccc(Cl)cc1)c1ccc(-c2cncc(F)c2)nc1C(F)(F)F [Compound C77] | 0 | 1 | 0 | 0 | 2 | 0 | 0 | 0 | 0 | 1
O=C(c1ccccc1)N(Cc1cnc(Cl)s1)c1ccc(-c2cncc(F)c2)nc1C(F)(F)F [Compound C78] | 0 | 1 | 1 | 0 | 3 | 0 | 0 | 0 | 0 | 2
COCC(=O)N(CC(C)C)c1ccc(-c2cncc(F)c2)nc1C(F)(F)F [Compound C79] | 2 | 3 | 3 | 0 | 3 | 0 | 0 | 0 | 1 | 5
COCC(=O)N(COCC(C)(C)C)c1ccc(-c2cncc(F)c2)nc1C(F)(F)F [Compound C81] | 2 | 4 | 3 | 0 | 5 | 0 | 0 | 0 | 1 | 5
COCC(=O)N(Cc1ccc(Cl)cc1)c1ccc(-c2cncc(F)c2)nc1C(F)(F)F [Compound C82] | 0 | 1 | 1 | 0 | 2 | 0 | 0 | 0 | 0 | 1
COCC(=O)N(Cc1cnc(Cl)s1)c1ccc(-c2cncc(F)c2)nc1C(F)(F)F [Compound C83] | 1 | 2 | 2 | 0 | 3 | 0 | 0 | 0 | 1 | 4
